Experiments:
Settings in all cases: Compound concentration 1000.0 nM
[1] = molecular target: T1, Serine/threonine-protein kinase Nek2 (Homo sapiens) (UniProt P51955)
T1 sequence (whole entry): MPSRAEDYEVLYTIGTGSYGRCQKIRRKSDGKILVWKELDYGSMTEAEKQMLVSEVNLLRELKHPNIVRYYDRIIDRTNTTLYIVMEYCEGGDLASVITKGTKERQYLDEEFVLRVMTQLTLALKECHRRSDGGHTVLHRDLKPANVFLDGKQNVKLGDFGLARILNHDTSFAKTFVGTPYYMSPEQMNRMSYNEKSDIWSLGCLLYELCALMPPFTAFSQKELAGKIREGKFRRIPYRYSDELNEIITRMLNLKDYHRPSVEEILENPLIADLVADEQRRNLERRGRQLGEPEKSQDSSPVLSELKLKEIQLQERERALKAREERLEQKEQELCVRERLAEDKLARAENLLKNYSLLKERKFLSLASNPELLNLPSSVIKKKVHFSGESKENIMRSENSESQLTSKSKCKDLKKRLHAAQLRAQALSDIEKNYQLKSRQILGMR

[2] = molecular target: ALK tyrosine kinase receptor (Homo sapiens) (UniProt Q9UM73)
Chain of ALK tyrosine kinase receptor (Homo sapiens) (Q9UM73 19-1620 limits assumed): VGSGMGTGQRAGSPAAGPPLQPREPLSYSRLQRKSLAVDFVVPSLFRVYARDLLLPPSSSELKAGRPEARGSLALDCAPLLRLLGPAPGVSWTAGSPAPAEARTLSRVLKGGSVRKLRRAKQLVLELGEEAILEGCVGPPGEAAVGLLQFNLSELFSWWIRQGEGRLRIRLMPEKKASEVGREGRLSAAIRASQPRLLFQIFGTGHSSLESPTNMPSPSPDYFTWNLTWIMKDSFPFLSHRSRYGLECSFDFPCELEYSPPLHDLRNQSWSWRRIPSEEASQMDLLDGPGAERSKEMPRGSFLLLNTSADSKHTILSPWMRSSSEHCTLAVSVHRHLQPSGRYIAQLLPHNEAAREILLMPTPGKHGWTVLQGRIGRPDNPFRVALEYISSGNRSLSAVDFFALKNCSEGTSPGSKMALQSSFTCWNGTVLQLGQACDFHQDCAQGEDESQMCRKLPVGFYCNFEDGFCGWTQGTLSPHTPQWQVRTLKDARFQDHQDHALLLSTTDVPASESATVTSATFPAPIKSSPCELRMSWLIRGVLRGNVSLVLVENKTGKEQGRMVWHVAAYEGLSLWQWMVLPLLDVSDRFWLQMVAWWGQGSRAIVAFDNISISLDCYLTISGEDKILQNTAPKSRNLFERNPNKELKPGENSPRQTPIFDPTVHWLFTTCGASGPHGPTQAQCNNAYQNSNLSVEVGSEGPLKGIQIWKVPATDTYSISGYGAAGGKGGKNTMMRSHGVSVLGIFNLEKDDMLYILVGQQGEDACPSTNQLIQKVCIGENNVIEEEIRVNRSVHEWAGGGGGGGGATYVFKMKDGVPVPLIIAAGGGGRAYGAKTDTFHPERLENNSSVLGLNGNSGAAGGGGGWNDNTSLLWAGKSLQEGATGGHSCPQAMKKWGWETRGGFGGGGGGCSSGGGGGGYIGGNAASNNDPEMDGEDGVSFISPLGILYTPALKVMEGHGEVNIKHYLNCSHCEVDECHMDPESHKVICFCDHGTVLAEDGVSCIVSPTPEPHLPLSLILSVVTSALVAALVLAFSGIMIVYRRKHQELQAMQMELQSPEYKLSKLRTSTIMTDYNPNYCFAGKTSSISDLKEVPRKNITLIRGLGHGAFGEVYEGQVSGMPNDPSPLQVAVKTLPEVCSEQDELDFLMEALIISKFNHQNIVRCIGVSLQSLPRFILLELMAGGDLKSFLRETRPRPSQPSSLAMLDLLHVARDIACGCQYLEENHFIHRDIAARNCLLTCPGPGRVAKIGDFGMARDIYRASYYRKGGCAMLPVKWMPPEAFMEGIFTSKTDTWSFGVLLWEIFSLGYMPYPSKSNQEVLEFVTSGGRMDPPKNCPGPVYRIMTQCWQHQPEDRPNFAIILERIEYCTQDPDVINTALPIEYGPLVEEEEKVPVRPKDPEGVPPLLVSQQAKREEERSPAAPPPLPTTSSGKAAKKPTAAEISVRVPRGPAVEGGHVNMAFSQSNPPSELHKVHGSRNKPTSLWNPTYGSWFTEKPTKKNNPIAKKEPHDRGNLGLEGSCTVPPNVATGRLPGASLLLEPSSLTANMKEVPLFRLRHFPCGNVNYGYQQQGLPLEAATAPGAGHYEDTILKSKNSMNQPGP

[3] = molecular target: Dual specificity protein kinase CLK4 (Homo sapiens) (UniProt Q9HAZ1)
Chain of Dual specificity protein kinase CLK4 (Homo sapiens) (Q9HAZ1 whole entry, looked up): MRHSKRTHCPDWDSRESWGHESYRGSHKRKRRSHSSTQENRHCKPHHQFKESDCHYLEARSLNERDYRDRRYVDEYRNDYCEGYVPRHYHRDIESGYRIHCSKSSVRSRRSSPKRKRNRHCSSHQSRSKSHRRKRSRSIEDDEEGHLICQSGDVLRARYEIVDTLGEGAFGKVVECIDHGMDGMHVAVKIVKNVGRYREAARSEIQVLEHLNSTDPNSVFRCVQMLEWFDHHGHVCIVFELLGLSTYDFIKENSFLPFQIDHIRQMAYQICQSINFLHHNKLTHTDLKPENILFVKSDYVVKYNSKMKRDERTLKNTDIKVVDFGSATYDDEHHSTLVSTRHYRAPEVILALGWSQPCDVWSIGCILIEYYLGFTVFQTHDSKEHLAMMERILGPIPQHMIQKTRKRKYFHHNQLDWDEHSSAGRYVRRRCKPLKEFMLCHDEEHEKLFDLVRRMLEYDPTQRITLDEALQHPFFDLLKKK

[4] = molecular target: Cyclin-dependent kinase-like 5 (Homo sapiens) (UniProt O76039)
[5] = tested on: Tyrosine-protein kinase ABL1 (Homo sapiens), P00519 [E255K]
[6] = tested on: Epidermal growth factor receptor (Homo sapiens), P00533 [UNDEFINED MUTATION]
[7] = molecular target: Activated CDC42 kinase 1 (Homo sapiens) (UniProt Q07912)
Chain of Activated CDC42 kinase 1 (Homo sapiens) (Q07912 whole entry, looked up): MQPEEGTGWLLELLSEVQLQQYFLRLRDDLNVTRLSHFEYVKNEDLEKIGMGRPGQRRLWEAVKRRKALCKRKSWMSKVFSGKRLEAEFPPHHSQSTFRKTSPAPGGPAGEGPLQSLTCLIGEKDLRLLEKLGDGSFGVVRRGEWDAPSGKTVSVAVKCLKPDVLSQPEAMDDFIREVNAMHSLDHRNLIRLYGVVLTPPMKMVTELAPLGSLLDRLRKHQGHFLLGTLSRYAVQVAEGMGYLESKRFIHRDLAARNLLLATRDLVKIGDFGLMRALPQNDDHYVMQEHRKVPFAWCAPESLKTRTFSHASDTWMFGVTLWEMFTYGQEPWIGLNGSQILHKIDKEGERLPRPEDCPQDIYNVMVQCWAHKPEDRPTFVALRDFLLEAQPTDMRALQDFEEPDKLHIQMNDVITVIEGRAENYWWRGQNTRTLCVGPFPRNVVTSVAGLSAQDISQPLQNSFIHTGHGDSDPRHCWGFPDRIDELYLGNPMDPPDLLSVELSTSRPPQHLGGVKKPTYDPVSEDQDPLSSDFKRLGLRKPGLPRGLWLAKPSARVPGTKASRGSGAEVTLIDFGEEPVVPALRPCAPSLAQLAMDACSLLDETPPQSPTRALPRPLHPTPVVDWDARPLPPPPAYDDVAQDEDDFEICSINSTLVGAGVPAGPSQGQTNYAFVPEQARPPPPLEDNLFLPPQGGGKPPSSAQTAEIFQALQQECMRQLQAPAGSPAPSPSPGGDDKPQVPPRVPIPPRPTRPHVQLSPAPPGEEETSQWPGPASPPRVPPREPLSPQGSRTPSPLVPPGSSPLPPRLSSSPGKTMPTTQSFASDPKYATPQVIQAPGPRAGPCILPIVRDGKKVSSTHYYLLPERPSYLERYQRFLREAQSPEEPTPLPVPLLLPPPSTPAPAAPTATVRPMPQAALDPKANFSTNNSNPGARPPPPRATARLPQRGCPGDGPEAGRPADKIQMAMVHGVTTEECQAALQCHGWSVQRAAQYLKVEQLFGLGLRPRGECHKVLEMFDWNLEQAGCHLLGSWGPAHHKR

[8] = molecular target: Vascular endothelial growth factor receptor 1 (Homo sapiens) (UniProt P17948)
Chain of Vascular endothelial growth factor receptor 1 (Homo sapiens) (P17948 whole entry): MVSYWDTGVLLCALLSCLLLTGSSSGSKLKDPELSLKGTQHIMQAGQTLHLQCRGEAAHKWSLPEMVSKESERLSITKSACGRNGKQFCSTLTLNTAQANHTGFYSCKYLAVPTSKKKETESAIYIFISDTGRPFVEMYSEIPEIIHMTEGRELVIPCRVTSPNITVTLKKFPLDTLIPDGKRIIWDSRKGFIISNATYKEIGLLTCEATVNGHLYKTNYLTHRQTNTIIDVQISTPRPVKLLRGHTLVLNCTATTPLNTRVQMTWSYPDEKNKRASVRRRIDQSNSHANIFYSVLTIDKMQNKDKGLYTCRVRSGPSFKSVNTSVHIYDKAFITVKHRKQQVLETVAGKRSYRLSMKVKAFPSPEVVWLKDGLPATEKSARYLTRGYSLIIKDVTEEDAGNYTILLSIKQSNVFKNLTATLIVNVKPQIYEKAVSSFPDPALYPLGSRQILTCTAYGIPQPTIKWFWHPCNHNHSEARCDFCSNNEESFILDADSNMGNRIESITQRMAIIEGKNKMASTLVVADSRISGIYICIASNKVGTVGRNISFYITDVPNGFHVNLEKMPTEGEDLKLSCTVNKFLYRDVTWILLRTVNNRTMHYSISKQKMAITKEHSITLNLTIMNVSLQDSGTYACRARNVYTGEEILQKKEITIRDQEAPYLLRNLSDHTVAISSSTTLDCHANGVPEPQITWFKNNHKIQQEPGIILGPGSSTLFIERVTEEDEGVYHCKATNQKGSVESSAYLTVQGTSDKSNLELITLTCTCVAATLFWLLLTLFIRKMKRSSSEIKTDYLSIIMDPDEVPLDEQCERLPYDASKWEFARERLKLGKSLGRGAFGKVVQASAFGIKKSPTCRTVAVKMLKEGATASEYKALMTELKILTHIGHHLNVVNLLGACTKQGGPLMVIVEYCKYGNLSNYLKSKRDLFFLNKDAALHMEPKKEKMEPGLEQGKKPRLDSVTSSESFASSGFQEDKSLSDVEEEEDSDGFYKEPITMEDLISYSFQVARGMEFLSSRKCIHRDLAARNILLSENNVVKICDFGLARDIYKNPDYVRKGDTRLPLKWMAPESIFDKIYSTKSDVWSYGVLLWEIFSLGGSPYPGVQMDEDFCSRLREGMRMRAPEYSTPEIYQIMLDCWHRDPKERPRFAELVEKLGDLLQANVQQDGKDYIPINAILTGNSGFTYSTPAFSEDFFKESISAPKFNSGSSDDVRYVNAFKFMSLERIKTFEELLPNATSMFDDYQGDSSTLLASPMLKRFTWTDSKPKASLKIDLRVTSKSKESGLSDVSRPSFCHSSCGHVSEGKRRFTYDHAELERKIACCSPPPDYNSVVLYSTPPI

[9] = molecular target: Ribosomal protein S6 kinase alpha-4 (Homo sapiens) (UniProt O75676)
[10] = molecular target: Dual specificity protein kinase CLK3 (Homo sapiens) (UniProt P49761)
[11] = molecular target: Serine/threonine-protein kinase Chk2 (Homo sapiens) (UniProt O96017)
Chain of Serine/threonine-protein kinase Chk2 (Homo sapiens) (O96017 whole entry): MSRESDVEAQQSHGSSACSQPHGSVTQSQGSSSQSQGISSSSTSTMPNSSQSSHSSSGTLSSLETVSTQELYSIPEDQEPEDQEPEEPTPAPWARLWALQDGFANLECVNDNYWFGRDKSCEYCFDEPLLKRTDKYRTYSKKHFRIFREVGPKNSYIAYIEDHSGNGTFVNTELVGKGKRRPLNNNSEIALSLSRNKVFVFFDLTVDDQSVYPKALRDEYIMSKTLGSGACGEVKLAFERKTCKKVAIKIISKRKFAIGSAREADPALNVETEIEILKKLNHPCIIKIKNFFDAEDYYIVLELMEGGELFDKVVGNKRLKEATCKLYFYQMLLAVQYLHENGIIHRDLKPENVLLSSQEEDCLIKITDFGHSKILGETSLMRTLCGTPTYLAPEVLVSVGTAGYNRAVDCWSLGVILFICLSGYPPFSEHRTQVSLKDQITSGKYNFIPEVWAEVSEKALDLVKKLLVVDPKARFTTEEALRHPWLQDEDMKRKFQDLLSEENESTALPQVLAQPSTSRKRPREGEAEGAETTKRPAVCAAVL

[12] = molecular target: AP2-associated protein kinase 1 (Homo sapiens) (UniProt Q2M2I8)
[13] = molecular target: T2, Serine/threonine-protein kinase PLK4 (Homo sapiens) (UniProt O00444)
T2 sequence (whole entry): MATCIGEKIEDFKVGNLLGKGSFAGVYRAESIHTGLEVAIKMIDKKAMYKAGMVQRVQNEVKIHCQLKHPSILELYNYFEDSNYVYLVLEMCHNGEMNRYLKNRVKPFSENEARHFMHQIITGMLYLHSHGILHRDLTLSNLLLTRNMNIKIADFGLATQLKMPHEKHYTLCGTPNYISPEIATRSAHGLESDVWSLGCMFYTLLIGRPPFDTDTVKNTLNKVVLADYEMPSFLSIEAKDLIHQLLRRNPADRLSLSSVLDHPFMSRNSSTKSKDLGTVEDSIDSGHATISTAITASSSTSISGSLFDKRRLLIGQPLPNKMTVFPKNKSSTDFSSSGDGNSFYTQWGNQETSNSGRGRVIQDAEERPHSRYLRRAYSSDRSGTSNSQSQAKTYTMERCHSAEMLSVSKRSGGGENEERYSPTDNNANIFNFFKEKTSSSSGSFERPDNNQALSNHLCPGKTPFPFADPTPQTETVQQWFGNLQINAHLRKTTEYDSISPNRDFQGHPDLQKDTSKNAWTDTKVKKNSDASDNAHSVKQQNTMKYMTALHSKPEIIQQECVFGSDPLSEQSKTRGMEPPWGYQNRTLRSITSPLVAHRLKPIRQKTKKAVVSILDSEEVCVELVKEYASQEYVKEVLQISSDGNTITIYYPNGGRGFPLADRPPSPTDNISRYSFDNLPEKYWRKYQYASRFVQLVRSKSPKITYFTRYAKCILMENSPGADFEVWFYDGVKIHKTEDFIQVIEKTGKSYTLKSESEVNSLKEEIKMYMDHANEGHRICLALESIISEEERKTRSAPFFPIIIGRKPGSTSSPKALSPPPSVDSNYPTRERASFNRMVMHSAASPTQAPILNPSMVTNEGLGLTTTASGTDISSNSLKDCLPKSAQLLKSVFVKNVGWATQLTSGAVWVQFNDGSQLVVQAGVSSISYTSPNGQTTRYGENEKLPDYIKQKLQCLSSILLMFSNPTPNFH

Measured: residual activity

Cc1nc(C2CCN(C(=O)c3ccc(OC(F)(F)F)cc3N)CC2)c2ncc(N3CCN(C)CC3)cc2n1 [BAY-693]
inactive: [1] 100% | [2] 89% | [3] 97% | [4] 89% | [5] 100% | [6] 100% | [7] 100% | [8] 88% | [9] 100% | [10] 94% | [11] 100% | [12] 100% | [13] 77%

CN1CCN(c2cnc3c(C4CCN(C(=O)c5ccc(OC(F)(F)F)cc5N)CC4)ncnc3c2)CC1 [BAY-885]
inactive: [1] 100% | [2] 99% | [3] 98% | [4] 93% | [5] 98% | [6] 100% | [7] 100% | [8] 76% | [9] 100% | [10] 100% | [11] 100% | [12] 100% | [13] 83%

Reference: ChEMBL document CHEMBL4507268 (2021)
